Key:
Human recombinant FAP [1] = target: T1, Human recombinant FAP (Homo sapiens (Human), UniProt Q12884); experiment: FAP protease activity assay (human), FRET-based; format: biochemical
Protocol: (§1) In order to determine the inhibitory activity a FRET-based FAP protease activity assay was established.
Four parameter logistic (4PL) curve fitting and pIC50 calculations were performed using ActivityBase software (IDBS).
Target sequence in this assay (Q12884 26-760): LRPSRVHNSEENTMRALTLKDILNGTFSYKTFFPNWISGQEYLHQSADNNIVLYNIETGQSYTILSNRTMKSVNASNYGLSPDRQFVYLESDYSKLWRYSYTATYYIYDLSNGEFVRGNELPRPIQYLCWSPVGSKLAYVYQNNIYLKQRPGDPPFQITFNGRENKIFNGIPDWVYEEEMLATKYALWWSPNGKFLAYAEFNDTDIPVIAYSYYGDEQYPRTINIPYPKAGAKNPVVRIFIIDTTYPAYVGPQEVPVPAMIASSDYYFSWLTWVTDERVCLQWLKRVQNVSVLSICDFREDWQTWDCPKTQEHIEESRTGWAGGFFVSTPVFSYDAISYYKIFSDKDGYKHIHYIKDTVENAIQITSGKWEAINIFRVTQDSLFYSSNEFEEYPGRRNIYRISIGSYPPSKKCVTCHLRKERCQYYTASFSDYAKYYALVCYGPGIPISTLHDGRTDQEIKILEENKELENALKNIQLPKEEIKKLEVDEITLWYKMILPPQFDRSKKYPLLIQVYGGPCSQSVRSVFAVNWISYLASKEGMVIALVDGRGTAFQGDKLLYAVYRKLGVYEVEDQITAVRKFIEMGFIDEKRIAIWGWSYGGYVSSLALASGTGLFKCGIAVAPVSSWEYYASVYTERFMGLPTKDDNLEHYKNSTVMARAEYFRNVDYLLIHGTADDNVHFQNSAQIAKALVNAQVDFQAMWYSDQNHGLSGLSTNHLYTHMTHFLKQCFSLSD

recombinant human PREP = recombinant human PREP (Homo sapiens (Human), UniProt P48147); experiment: PREP protease activity assay; format: biochemical
Sequence of recombinant human PREP (P48147 whole entry): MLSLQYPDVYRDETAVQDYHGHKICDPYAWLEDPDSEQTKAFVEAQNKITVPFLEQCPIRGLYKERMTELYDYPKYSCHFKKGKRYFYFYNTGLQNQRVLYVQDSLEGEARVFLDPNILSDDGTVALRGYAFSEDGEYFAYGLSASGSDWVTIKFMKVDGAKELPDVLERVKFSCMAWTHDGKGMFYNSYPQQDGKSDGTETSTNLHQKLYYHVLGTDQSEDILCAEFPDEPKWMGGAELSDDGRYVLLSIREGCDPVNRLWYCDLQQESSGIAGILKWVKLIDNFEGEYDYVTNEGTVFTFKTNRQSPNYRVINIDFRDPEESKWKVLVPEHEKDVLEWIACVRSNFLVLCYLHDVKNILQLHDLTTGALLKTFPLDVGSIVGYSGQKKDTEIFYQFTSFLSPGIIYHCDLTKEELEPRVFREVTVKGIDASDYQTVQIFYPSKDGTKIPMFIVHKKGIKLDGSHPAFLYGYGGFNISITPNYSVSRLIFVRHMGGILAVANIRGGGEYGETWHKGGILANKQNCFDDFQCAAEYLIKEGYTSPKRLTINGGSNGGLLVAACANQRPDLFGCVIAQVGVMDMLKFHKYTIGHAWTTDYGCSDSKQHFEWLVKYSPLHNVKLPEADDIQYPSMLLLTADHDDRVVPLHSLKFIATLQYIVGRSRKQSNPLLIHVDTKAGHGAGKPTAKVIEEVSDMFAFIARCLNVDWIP
Protocol: (§2) The PREP activity assay was performed using the FACS buffer (PBS including 1% FBS, Sigma-Aldrich, Cat #D8537). […] The DPP4 activity assay was performed in DPP assay buffer (25 mM Tris, pH 8.0). […] Four parameter logistic (4PL) curve fitting and pIC50 calculations were performed using ActivityBase software.

[2] = target: FAP-expressing human WI-38 fibroblasts (Homo sapiens (Human), UniProt Q12884); experiment: FACS binding assay (competitive, Cy5-labeled 3BP-2935)
Sequence of FAP-expressing human WI-38 fibroblasts (Q12884 whole entry): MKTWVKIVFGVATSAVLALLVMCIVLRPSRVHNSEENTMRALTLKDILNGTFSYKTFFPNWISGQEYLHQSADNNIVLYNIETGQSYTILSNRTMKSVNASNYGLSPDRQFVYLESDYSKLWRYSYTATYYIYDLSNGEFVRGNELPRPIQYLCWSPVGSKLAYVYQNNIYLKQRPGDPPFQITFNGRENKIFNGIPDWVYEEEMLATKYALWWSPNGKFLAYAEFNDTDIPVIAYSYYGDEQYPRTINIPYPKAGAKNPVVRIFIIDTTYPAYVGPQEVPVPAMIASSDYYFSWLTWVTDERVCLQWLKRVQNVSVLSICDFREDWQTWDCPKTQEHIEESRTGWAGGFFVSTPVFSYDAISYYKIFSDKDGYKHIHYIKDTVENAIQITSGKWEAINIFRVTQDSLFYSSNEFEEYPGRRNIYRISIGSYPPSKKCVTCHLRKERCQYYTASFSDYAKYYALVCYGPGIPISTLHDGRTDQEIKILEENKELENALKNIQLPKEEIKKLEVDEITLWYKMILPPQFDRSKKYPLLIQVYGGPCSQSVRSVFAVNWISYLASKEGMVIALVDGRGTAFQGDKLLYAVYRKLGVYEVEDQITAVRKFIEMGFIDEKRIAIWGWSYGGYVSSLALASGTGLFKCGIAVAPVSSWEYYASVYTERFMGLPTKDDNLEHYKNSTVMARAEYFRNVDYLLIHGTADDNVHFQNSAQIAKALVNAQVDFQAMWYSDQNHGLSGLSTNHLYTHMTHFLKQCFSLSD
Protocol: In order to determine binding of compounds according to the present invention to FAP-expressing cells, a competitive FACS binding assay was established. […] Cells were diluted in FACS buffer to a final concentration of 100.000 cells per ml and 200 μl of the cell suspension are transferred to a u-shaped non-binding 96-well plate (Greiner). […] Cell were washed twice with FACS buffer (see above) and resuspended in 200 μl FACS buffer. Cells were analyzed in an Attune NxT flow cytometer (Thermo Fisher Scientific). Median fluorescence intensities (Cy5 channel) were calculated by Attune NxT software and plotted against test compound concentrations. Four parameter logistic (4PL) curve fitting and pIC50 calculations were performed using ActivityBase software.

Recombinant human DPP4 = Recombinant human DPP4 (Homo sapiens (Human), UniProt P27487); experiment: DPP4 protease activity assay; format: biochemical
Sequence of Recombinant human DPP4 (P27487 whole entry): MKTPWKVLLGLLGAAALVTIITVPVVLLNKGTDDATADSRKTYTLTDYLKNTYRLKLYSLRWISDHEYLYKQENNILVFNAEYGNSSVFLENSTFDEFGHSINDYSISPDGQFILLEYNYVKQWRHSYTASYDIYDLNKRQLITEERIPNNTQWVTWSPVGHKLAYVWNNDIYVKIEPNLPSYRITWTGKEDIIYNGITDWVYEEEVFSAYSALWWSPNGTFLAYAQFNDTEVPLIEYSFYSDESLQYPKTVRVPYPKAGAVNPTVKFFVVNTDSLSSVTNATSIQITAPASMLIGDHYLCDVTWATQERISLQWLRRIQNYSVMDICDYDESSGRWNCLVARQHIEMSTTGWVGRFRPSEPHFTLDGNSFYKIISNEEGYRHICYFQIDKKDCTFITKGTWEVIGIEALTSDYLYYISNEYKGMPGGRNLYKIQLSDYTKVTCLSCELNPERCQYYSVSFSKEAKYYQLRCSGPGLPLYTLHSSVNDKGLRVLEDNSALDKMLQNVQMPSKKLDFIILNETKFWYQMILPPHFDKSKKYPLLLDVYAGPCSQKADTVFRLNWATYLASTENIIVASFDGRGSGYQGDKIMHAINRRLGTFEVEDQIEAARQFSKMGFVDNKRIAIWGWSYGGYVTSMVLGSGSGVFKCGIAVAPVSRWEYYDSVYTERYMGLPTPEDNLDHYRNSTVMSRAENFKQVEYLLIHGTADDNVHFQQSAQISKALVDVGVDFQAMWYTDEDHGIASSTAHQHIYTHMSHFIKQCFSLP
Protocol: as §2

Human recombinant FAP [3] = target: T1, Human recombinant FAP; experiment: Surface plasmon resonance assay (Biacore T200, SCK); format: binding; settings: for HL [min] (Biacore): SPR dissociation half-life
Protocol: Surface plasmon resonance studies were performed using a Biacore™ T200 SPR system (Cytiva, formerly GE Healthcare). Briefly, polarized light is directed towards a gold-labeled sensor surface, and minimum intensity reflected light is detected. The angle of reflected light changes as molecules bind and dissociate. […] Test compounds are contacted with the loaded surface, and a real-time interaction profile with the FAP ligand is recorded in a sensorgram. In real-time, the association and dissociation of a binding interaction is measured, enabling calculation of association and dissociation rate constants and the corresponding affinity constants. Importantly, a background response is generated due to the difference in the refractive indices of the running and sample buffers, as well as unspecific binding of the test compounds to the flow cell surface. This background is measured and subtracted by running the sample on a control flow cell coated with the same density of capture antibody in the absence of immobilized FAP. Furthermore, baseline drift correction of the binding data is performed, which is caused by slow dissociation of the captured FAP from the immobilized antibody. This drift is measured by injecting running buffer through a flow cell with the antibody and FAP immobilized to the sensor surface.
Biacore™ CM5 sensor chips were used. […] A 150 μL aliquot was transferred into plastic vials and placed into the sample rack of the Biacore™ T200 instrument. Amine Coupling Kit Reagent solutions were transferred into plastic vials and placed into the sample rack: 90 μL of 0.4 M 1-ethyl-3-(3-dimethylaminopropyl) carbodiimide (EDC), and 90 μL of 0.1 M N-hydroxysuccinimide (NHS). A 130 μL aliquot of 1 M ethanolamine-HCl, pH 8.5, was transferred into plastic vials and placed into the sample rack. The Biacore™ liquid system was set-up as follows: Separate bottles containing distilled water (1 L), Running Buffer (500 mL), as well as an empty bottle for waste were placed onto the buffer tray. A preinstalled program for immobilization was used, with an immobilization level of 7000 RU. Immobilization was performed at 25° C. The immobilization procedure of anti-FAP antibodies was performed, as described in the Table 4.
Human recombinant FAP was diluted in Running Buffer to a final concentration of 20 μg/mL. A 100 μL aliquot of human FAP-Working-Solution was transferred into plastic vials and placed into a sample rack. A 0.5 mM Compound-Stock-Solution was prepared by dissolving each compound in DMSO. For each test compound, Compound-Stock-Solutions were diluted in Running Buffer (HBST) at 500 nM and further diluted with HBST-DMSO Buffer (0.1% DMSO). SPR binding analyses for binary complexes were performed in SCK mode at 25° C. Following three SCK measurements, a baseline drift was assessed by injecting running buffer through a flow cell, with the antibody and FAP immobilized to the sensor surface.
For each test compound, SPR raw data in the form of resonance units (RU) were plotted as sensorgrams using the Biacore™ T200 control software. The signal from the blank sensorgram was subtracted from that of the test compound sensorgram (blank corrected). The blank corrected sensorgram was corrected for baseline drift by subtracting the sensorgram of a SCK run without the test compound (running buffer only). The association rate (kon), dissociation rate (koff), dissociation constant (KD), and t1/2 were calculated from Blank-normalized SPR data using the 1:1 Langmuir binding model from the Biacore™ T200 evaluation software. Raw data and fit results were imported as text files in IDBS. The pKD value (negative decadic logarithm of dissociation constant) was calculated in the IDBS excel template.
Target sequence in this assay (Q12884 whole entry): as the sequence (Q12884 whole entry) above

Recombinant mouse FAP = Recombinant mouse FAP (Mus musculus (Mouse), UniProt P97321); experiment: FAP protease activity assay (mouse), FRET-based; format: biochemical
Sequence of Recombinant mouse FAP (P97321 whole entry): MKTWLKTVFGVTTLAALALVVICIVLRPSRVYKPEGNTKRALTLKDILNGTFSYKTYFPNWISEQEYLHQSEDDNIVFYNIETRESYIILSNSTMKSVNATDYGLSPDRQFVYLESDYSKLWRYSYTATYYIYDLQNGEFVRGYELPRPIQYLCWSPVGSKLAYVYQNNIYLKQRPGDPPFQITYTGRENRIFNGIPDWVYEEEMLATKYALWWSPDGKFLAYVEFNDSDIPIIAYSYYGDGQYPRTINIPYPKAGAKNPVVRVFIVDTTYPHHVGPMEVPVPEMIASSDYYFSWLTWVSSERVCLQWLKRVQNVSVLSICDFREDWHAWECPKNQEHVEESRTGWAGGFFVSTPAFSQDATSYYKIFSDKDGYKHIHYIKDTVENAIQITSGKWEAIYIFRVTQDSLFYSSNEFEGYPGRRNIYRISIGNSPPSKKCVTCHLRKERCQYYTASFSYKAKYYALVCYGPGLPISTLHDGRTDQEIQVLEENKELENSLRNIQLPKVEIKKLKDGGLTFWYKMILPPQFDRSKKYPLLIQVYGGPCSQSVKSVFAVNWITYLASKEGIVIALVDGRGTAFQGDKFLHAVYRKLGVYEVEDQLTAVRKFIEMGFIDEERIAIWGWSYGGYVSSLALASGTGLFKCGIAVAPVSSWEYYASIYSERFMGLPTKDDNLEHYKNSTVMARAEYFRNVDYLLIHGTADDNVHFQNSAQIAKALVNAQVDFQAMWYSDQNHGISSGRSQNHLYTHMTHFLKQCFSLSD
Protocol: as §1
Four parameter logistic (4PL) curve fitting and pIC50 calculations were performed using ActivityBase software.

HT-29 cells = experiment: Stability in the presence of tumor cells (HT-29), FAP IC50 of supernatants; format: in vitro ADME, human
[4] = recombinant human FAP, FRET protease activity
[5] = FAP-expressing WI-38 fibroblasts
[6] = recombinant mouse FAP, FRET protease activity
[7] = human FAP protease activity, FRET
[8] = recombinant mouse FAP protease activity

| Structure (SMILES) | pIC50 (Activity) (Human recombinant FAP [1]; [4]) | pIC50 (PREP) (recombinant human PREP) | pIC50 (FACS) [2, 5] | pIC50 (DPP4) (Recombinant human DPP4) | pKD (Biacore) (Human recombinant FAP [3]; SPR) | HL [min] (Biacore) (Human recombinant FAP [3]) | pIC50 (Activity) (Human recombinant FAP [1]; [7]) | pIC50 (FACS) ([2]; WI-38 fibroblasts) | pIC50 (mouseFAP) (Recombinant mouse FAP; [8]) | further results |
| --- | --- | --- | --- | --- | --- | --- | --- | --- | --- | --- |
| CS(=O)(=O)c1cccc(-c2ccc3nccc(C(=O)NCC(=O)N4CCC[C@H]4C#N)c3c2)c1 [Compound 3BP-3132] | 9 | <6 | 8.4 | <6 | 9.4 | 2.5 |  |  |  |  |
| CS(=O)(=O)c1cccc(-c2ccc3c(C(=O)NCC(=O)N4CCC[C@H]4C#N)ccnc3c2)c1 [Compound 3BP-3133] | 8.7 | <6 | 8.2 | <6 | 9.3 | 5.7 |  |  |  |  |
| O=C(NCC(=O)N1CCC[C@H]1C(=O)c1nccs1)c1ccnc2ccccc12 [Compound 3BP-3206] | 7.3 | 7.6 | 7 | <6 | 7.9 | 0.3 |  |  |  |  |
| CS(=O)(=O)c1ccc(-c2ccc3nccc(C(=O)NCC(=O)N4CC(F)(F)C[C@H]4C#N)c3c2)cc1 [Compound 3BP-3233] | 9.2 | <6 | 9 | <6 | >10.5 | 130 |  |  |  | pIC50 (mouseFAP) (Recombinant mouse FAP; [6]): 9.1 |
| CS(=O)(=O)c1ccc(-c2ccc3nccc(C(=O)NCC(=O)N4CCC[C@H]4C#N)c3c2)cc1 [Compound 3BP-3235] | 9.2 | <6 | 8.4 | <6 | 9.8 | 12 |  |  |  |  |
| N#C[C@@H]1CCCN1C(=O)CNC(=O)c1ccnc2cc(-c3cccc(C(=O)O)c3)ccc12 [Compound 3BP-3293] | 8.8 | <6 | 8.6 | <6 |  |  |  |  |  |  |
| N#C[C@@H]1CCCN1C(=O)CNC(=O)c1ccnc2ccc(-c3ccc(C(=O)O)cc3)cc12 [Compound 3BP-3295] |  |  |  |  |  | 11 |  |  |  | IC50 (recombinant human PREP): > 1000 nM |
| N#C[C@@H]1CC(F)(F)CN1C(=O)CNC(=O)c1ccnc2c1=CC(OCCCN1CCN(C(=O)CN3CCN4CCN5CCN(CC3)CC(=O)[O][In]([O]C(=O)C5)[O]C(=O)C4)CC1)CC=2 (stereo partly shown) [Compound 3BP-3468] | 9.2 | <6 | 8.7 | <6 | 10.5 | 69 |  |  |  | pIC50 (mouseFAP) (Recombinant mouse FAP; [6]): 9 |
| N#C[C@@H]1CC(F)(F)CN1C(=O)CNC(=O)c1ccnc2ccc(OCCCN3CCN(C(=O)CN4CCN5CCN6CCN(CC4)CC(=O)[O][Lu]([O]C(=O)C6)[O]C(=O)C5)CC3)cc12 [Compound 3BP-3469] | 9.3 |  | 8.7 | <6 | 10.2 | 35.5 |  |  |  | pIC50 (incubation in cell medium w/o HT-29) (HT-29 cells; 10 μM compound, 24 hours at 37° C. in control wells without cells, supernatant tested on recombinant human FAP): 9.2; pIC50 (incubation in the presence of HT-29 cells) (HT-29 cells; 10 μM compound, 24 hours at 37° C. with HT-29 cells, supernatant tested on recombinant human FAP): 8.3; Residual activity after incubation with HT-29 cells for 24 hours (%) (HT-29 cells; HT-29 cells, 24 hours): 13%; pIC50 (mouseFAP) (Recombinant mouse FAP; [6]): 9.1 |
| CC(C)(C)c1nnc(C(=O)[C@@H]2CCCN2C(=O)CNC(=O)c2ccnc3ccccc23)o1 [Compound 3BP-3632] | 8.4 | 8.9 | 7.8 | <6 | 8.6 | 0.4 |  |  |  | pIC50 (mouseFAP) (Recombinant mouse FAP; [6]): 8.4 |
| CS(=O)(=O)c1ccc(-c2ccc3nccc(C(=O)NCC(=O)N4C[C@@H](F)C[C@H]4C#N)c3c2)cc1 [Compound 3BP-3774] |  |  |  | <6 |  |  | 9.2 | 8.8 | 9.2 |  |
| N#C[C@@H]1CCCN1C(=O)CNC(=O)c1ccnc2ccc(-c3ccc(C(=O)NCCCN(CC(=O)O)C(=O)CN4CCN(CC(=O)O)CCN(CC(=O)O)CCN(CC(=O)O)CC4)cc3)cc12 [Compound 3BP-3954, (S)-2,2′,2″-(10-(2-((carboxymethyl)(3-(4-(4-(2-(2-cyanopyrrolidin-1-yl)-2-oxoethylcarbamoyl)quinolin-6-yl)benzamido)propyl)amino)-2-oxoethyl)-1,4,7,10-tetraazacyclododecane-1,4,7-triyl)triacetic Acid] |  |  |  |  |  | >150 |  |  |  | IC50 (Human recombinant FAP [1]; human FAP protease activity, FRET, read-out: pIC50 (Activity) (converted)): 1.26 nM; IC50 (recombinant human PREP): > 1000 nM; IC50 ([2]; WI-38 fibroblasts): 3.98 nM; IC50 (Recombinant human DPP4; read-out: pIC50 (DPP4) (converted)): > 1000 nM; Kd (Human recombinant FAP [3]; SPR, read-out: pKD (Biacore) (converted)): < 0.0316 nM |

Now from value to molecule, other results behind:

| pIC50 (Activity) (Human recombinant FAP [1]; [4]) | pIC50 (PREP) (recombinant human PREP) | pIC50 (FACS) [2, 5] | pIC50 (DPP4) (Recombinant human DPP4) | pKD (Biacore) (Human recombinant FAP [3]; SPR) | HL [min] (Biacore) (Human recombinant FAP [3]) | pIC50 (Activity) (Human recombinant FAP [1]; [7]) | pIC50 (FACS) ([2]; WI-38 fibroblasts) | pIC50 (mouseFAP) (Recombinant mouse FAP; [8]) | Structure (SMILES) | further results |
| --- | --- | --- | --- | --- | --- | --- | --- | --- | --- | --- |
|  |  |  | <6 |  |  | 9.3 | 8.5 | 9 | CS(=O)(=O)c1cc(F)c(-c2ccc3nccc(C(=O)NCC(=O)N4CCC[C@H]4C#N)c3c2)c(F)c1 [Compound 3BP-3828] |  |
|  |  |  | <6 | >10.5 | >150 | 9.4 | 8.9 | 8.9 | N#C[C@@H]1CC(F)(F)CN1C(=O)CNC(=O)c1ccnc2ccc(-c3ccc(C(=O)NCCCNC(O)CN4CCN5CCN6CCN(CC4)CC(=O)[O][Eu]([O]C(=O)C6)[O]C(=O)C5)cc3)cc12 (stereo partly shown) [Compound 3BP-3829] |  |
|  |  |  | <6 | 10 | 64 | 9.3 | 8.5 | 8.7 | N#C[C@@H]1CCCN1C(=O)CNC(=O)c1ccnc2ccc(-c3ccc(C(=O)NCCCNC(O)CN4CCN5CCN6CCN(CC4)CC(=O)[O][Eu]([O]C(=O)C6)[O]C(=O)C5)cc3)cc12 (stereo partly shown) [Compound 3BP-3830] |  |
|  |  |  | 6.1 |  |  | 9.3 | 8.7 | 8.8 | Cc1cc(S(C)(=O)=O)ccc1-c1ccc2nccc(C(=O)NCC(=O)N3CC(F)(F)C[C@H]3C#N)c2c1 [Compound 3BP-3952] |  |
|  |  |  | <6 |  |  | 9.2 | 7.9 | 8.9 | Cc1cc(S(C)(=O)=O)ccc1-c1ccc2nccc(C(=O)NCC(=O)N3CCC[C@H]3C#N)c2c1 [Compound 3BP-3953] |  |

Source: patent publication US20240335569A1, “FIBROBLAST ACTIVATION PROTEIN INHIBITORS AND USE THEREOF” (3 B PHARMACEUTICALS GMBH, priority 2021, published 2024)
